# From patent US20240180881A1, “METHODS FOR DECREASING RESISTANCE TO CHEMOTHERAPY” (National Institute of Immunology, priority 2022, published 2024)
# Read-outs that look alike come from different tables or passages of the source.
# What was measured:
# HCT116 WT cells = experiment: MTT assay, chemotherapeutic drug gradient with or without disruptor; format: cell-based; conditions: for EC50: MTT, 72 hours
# Description: (§1) The three resistant lines and their wildtype counterpart HCT116 were exposed to a gradient of CPT, CDDP or 1-OHP.
# (§2) Concentrations of CPT used: 0.140 nM, 20 nM, 50 nM, 1000 nM. Concentration of 1-OHP: 0.14 μM, 2 μM, 4 μM, 6 μM, 8 μM. Concentrations of CDDP used: 0.140 μM, 2 μM, 5 μM, 10 μM. The percentage of viable cells were determined by MTT assays (FIG. 12A-12C). The data in FIG. 12A and FIG. 12C is from three independent experiments and the data in FIG. 12B is from nine independent experiments. […] The levels of MRP2, MRP3, MRP5, MXR were quantitated from three independent experiments. […] Specifically, HCT116 IC60 CPTR cells were transfected with the HR substrate for 72 hours and the levels of HR was determined (FIG. 6A). The data is from three independent experiments. […] The number of soft agar colonies in each condition were counted. The data is from three independent experiments.
# To generate camptothecin and cisplatin resistant cells (named as HCT116 IC60 CPT^R, HCT116 IC60 CDDP^R respectively), HCT116 wild type were seeded in a 10 cm dish to a confluency of 80%. The IC20 concentrations of cisplatin (3.38 μM) and camptothecin (12.6 nM) was added for 2 hours and 6 hours, respectively. Post treatment, the cells were washed twice with 1×PBS and fresh media was added. After every 48 hours, the media was changed and IC20 concentration of the drugs were added only if the confluency of cells was at least 80%. […] Resistant index was calculated using the following formula: Resistant index=IC60 of the resistant cells/IC60 of the parental cells.
# Cells were seeded in a 96-well plate overnight. Next day, the culturing media was replaced with Optimem media, followed by incubation with BLM_CPP or SCM_CPP for 1 hr. The final concentrations of the peptides were 450 nM for cisplatin (CDDP) and 180 nM (for all other drugs). […] Post treatment, the cells were washed with 1×PBS and fresh media was added. After 72 hours, MTT assay was carried out to determine the percentage cell viability of the cells with respect to the untreated cells.
# HCT116 IC60 1-OHPR cells = conditions: read-out: EC50 (μM), HCT116 1-OHP^R + 1-OHP; 1-OHP gradient alone, MTT, 72 hours
# Description: as §1, §2
# (§3) To generate camptothecin and cisplatin resistant cells (named as HCT116 IC60 CPT^R, HCT116 IC60 CDDP^R respectively), HCT116 wild type were seeded in a 10 cm dish to a confluency of 80%. The IC20 concentrations of cisplatin (3.38 μM) and camptothecin (12.6 nM) was added for 2 hours and 6 hours, respectively. […] Resistant index was calculated using the following formula: Resistant index=IC60 of the resistant cells/IC60 of the parental cells. […]
# HCT116 IC60 CDDPR cells = experiment: MTT assay, CDDP gradient with or without disruptor; format: cell-based; conditions: CDDP gradient alone, 72 hours, read-out: EC50 (μM), HCT116 WT CDDP^R
# Description: as §1, §2, §3
# [1] = HCT116, used to generate resistant cells
smiles,measurement,setting,value
"N[C@@H]1CCCC[C@H]1N.O=C([O-])C(=O)[O-].[Pt+2] [1-OHP, oxaliplatin]",EC50,"HCT116 WT cells; 1-OHP gradient alone, read-out: EC50 (μM), HCT116 WT + 1-OHP",4.77 µM
same,EC50,HCT116 IC60 1-OHPR cells,14.1 µM
"[NH2][Pt]([NH2])([Cl])[Cl] [CDDP, cisplatin]",EC50,"HCT116 WT cells; CDDP gradient alone, read-out: EC50 (μM), HCT116 WT",3.78 µM
same,IC40 concentration,HCT116 WT cells; [1],15.5 µM
same,IC60 concentration,HCT116 WT cells; [1],35.09 µM
same,IC20,"HCT116 WT cells; HCT116 wild type, used to generate resistant cells, read-out: IC20 concentration",3.38 µM
same,EC50,HCT116 IC60 CDDPR cells,21.7 µM
